Source: ChEMBL document CHEMBL1123539, “[p-[(Thienylcarbonyl)amino]phenoxy]propanolamines derivatives as diuretic and beta-adrenergic receptor blocking agents” (1986)

Legend:
[1] = biological target: Beta-1 adrenergic receptor (Homo sapiens) (UniProt P08588); details: Canis lupus familiaris
Description: Compound was tested for beta-1 adrenergic receptor blocking activity in dogs

Rattus norvegicus [2] = assay: Compound was tested for oral salidiuretic activity (control/drug treatment value) in rats expressed in Na+, mequiv/6 hr at a dose of 128 mg/kg; 0.114/0.707
Rattus norvegicus [3] = assay: Compound was tested for oral salidiuretic activity (control/drug treatment value) in rats expressed as urinary output. at a dose of 128 mg/kg; 7.70/12.75; assay type: functional, Urine
[4] = biological target: Beta-2 adrenergic receptor (Canis lupus familiaris) (UniProt P54833)
Sequence of Beta-2 adrenergic receptor (Canis lupus familiaris) (P54833 whole entry, looked up): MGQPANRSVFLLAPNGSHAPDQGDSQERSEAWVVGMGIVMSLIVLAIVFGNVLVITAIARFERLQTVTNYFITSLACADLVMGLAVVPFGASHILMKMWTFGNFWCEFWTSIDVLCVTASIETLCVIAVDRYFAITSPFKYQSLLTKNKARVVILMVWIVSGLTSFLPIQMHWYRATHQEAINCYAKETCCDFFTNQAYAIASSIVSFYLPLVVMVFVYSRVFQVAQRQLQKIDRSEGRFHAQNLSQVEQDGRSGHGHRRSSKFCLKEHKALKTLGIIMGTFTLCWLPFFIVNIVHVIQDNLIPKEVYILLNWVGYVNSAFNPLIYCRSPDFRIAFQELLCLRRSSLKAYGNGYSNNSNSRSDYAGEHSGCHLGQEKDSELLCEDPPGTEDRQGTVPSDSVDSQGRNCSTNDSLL
Description: The compound was tested for beta-2 adrenergic receptor blocking activity in dogs

Rattus norvegicus [5] = assay: Compound was tested for oral salidiuretic activity (control/drug treatment value) in rats expressed in Na+, mequiv/6 hr at a dose of 16 mg/kg; 0.216/0.178; assay type: functional, Urine
Rattus norvegicus [6] = assay: Compound was tested for oral salidiuretic activity (control/drug treatment value) in rats expressed in Na+, mequiv/6 hr at a dose of 64 mg/kg; 0.216/0.097; assay type: functional, Urine
Rattus norvegicus [7] = assay: Compound was tested for oral salidiuretic activity (control/drug treatment value) in rats expressed as urinary output. at a dose of 128 mg/kg; 9.05/12.83; assay type: functional, Urine
Rattus norvegicus [8] = assay: Compound was tested for oral salidiuretic activity (control/drug treatment value) in rats expressed in Na+, mequiv/6 hr at a dose of 32 mg/kg; 0.216/0.207; assay type: functional, Urine
Rattus norvegicus [9] = assay: Compound was tested for oral salidiuretic activity (control/drug treatment value) in rats expressed as urinary output. at a dose of 16 mg/kg; 9.05/9.87; assay type: functional, Urine
Rattus norvegicus [10] = assay: Compound was tested for oral salidiuretic activity (control/drug treatment value) in rats expressed in Na+, mequiv/6 hr at a dose of 128 mg/kg; 0.216/0.263; assay type: functional, Urine
Rattus norvegicus [11] = assay: Compound was tested for oral salidiuretic activity (control/drug treatment value) in rats expressed in Na+, mequiv/6 hr at a dose of 128 mg/kg; 0.112/0.407; assay type: functional, Urine
Rattus norvegicus [12] = assay: Compound was tested for oral salidiuretic activity (control/drug treatment value) in rats expressed as urinary output. at a dose of 128 mg/kg; 7.25/9.43; assay type: functional, Urine
Rattus norvegicus [13] = assay: Compound was tested for oral salidiuretic activity (control/drug treatment value) in rats expressed in Na+, mequiv/6 hr at a dose of 64 mg/kg; 0.140/0.606
Rattus norvegicus [14] = assay: Compound was tested for oral salidiuretic activity (control/drug treatment value) in rats expressed as urinary output. at a dose of 64 mg/kg; 10.33/12.42
Rattus norvegicus [15] = assay: Compound was tested for oral salidiuretic activity (control/drug treatment value) in rats expressed as urinary output. at a dose of 64 mg/kg; 7.67/12.42; assay type: functional, Urine
Rattus norvegicus [16] = assay: Compound was tested for oral salidiuretic activity (control/drug treatment value) in rats expressed as urinary output. at a dose of 16 mg/kg; 7.67/8.78; assay type: functional, Urine
Rattus norvegicus [17] = assay: Compound was tested for oral salidiuretic activity (control/drug treatment value) in rats expressed in Na+, mequiv/6 hr at a dose of 16 mg/kg; 0.181/0.242; assay type: functional, Urine
Rattus norvegicus [18] = assay: Compound was tested for oral salidiuretic activity (control/drug treatment value) in rats expressed as urinary output. at a dose of 32 mg/kg; 7.67/10; assay type: functional, Urine
Rattus norvegicus [19] = assay: Compound was tested for oral salidiuretic activity (control/drug treatment value) in rats expressed in Na+, mequiv/6 hr at a dose of 64 mg/kg; 0.181/0.512; assay type: functional, Urine
Rattus norvegicus [20] = assay: Compound was tested for oral salidiuretic activity (control/drug treatment value) in rats expressed in Na+, mequiv/6 hr at a dose of 32 mg/kg; 0.181/0.230; assay type: functional, Urine
Rattus norvegicus [21] = assay: Compound was tested for oral salidiuretic activity (control/drug treatment value) in rats expressed in Na+, mequiv/6 hr at a dose of 128 mg/kg; 0.181/0.607; assay type: functional, Urine
Rattus norvegicus [22] = assay: Compound was tested for oral salidiuretic activity (control/drug treatment value) in rats expressed as urinary output. at a dose of 128 mg/kg; 7.67/14.18; assay type: functional, Urine
Rattus norvegicus [23] = assay: Compound was tested for oral salidiuretic activity (control/drug treatment value) in rats expressed in Na+, mequiv/6 hr at a dose of 128 mg/kg; 0.306/0.786; assay type: functional, Urine
Rattus norvegicus [24] = assay: Compound was tested for oral salidiuretic activity (control/drug treatment value) in rats expressed as urinary output. at a dose of 128 mg/kg; 6.83/10.83; assay type: functional, Urine
Rattus norvegicus [25] = assay: Compound was tested for oral salidiuretic activity (control/drug treatment value) in rats expressed in Na+, mequiv/6 hr at a dose of 110 mg/kg; 0.261/0.735
Rattus norvegicus [26] = assay: Compound was tested for oral salidiuretic activity (control/drug treatment value) in rats expressed as urinary output. at a dose of 110 mg/kg; 7.17/11.20; assay type: functional, Urine
Rattus norvegicus [27] = assay: Compound was tested for oral salidiuretic activity (control/drug treatment value) in rats expressed in Na+, mequiv/6 hr at a dose of 14 mg/kg; 0.261/0.695; assay type: functional, Urine
Rattus norvegicus [28] = assay: Compound was tested for oral salidiuretic activity (control/drug treatment value) in rats expressed as urinary output. at a dose of 55 mg/kg; 7.17/9.58; assay type: functional, Urine
Rattus norvegicus [29] = assay: Compound was tested for oral salidiuretic activity (control/drug treatment value) in rats expressed in Na+, mequiv/6 hr at a dose of 110 mg/kg; 0.261/0.735; assay type: functional, Urine
Rattus norvegicus [30] = assay: Compound was tested for oral salidiuretic activity (control/drug treatment value) in rats expressed in Na+, mequiv/6 hr at a dose of 27 mg/kg; 0.261/0.742; assay type: functional, Urine
Rattus norvegicus [31] = assay: Compound was tested for oral salidiuretic activity (control/drug treatment value) in rats expressed as urinary output. at a dose of 14 mg/kg; 7.17/9.08; assay type: functional, Urine
Rattus norvegicus [32] = assay: Compound was tested for oral salidiuretic activity (control/drug treatment value) in rats expressed as urinary output. at a dose of 27 mg/kg; 7.17/9.75; assay type: functional, Urine
Rattus norvegicus [33] = assay: Compound was tested for oral salidiuretic activity (control/drug treatment value) in rats expressed as urinary output. at a dose of 32 mg/kg; 10.33/10.75; assay type: functional, Urine
Rattus norvegicus [34] = assay: Compound was tested for oral salidiuretic activity (control/drug treatment value) in rats expressed in Na+, mequiv/6 hr at a dose of 32 mg/kg; 0.140/0.416; assay type: functional, Urine
Rattus norvegicus [35] = assay: Compound was tested for oral salidiuretic activity (control/drug treatment value) in rats expressed as urinary output. at a dose of 128 mg/kg; 4.88/5.32; assay type: functional, Urine
Rattus norvegicus [36] = assay: Compound was tested for oral salidiuretic activity (control/drug treatment value) in rats expressed in Na+, mequiv/6 hr at a dose of 128 mg/kg; 0.229/0.172; assay type: functional, Urine

Sequence of Beta-1 adrenergic receptor (Homo sapiens) (P08588 whole entry, looked up): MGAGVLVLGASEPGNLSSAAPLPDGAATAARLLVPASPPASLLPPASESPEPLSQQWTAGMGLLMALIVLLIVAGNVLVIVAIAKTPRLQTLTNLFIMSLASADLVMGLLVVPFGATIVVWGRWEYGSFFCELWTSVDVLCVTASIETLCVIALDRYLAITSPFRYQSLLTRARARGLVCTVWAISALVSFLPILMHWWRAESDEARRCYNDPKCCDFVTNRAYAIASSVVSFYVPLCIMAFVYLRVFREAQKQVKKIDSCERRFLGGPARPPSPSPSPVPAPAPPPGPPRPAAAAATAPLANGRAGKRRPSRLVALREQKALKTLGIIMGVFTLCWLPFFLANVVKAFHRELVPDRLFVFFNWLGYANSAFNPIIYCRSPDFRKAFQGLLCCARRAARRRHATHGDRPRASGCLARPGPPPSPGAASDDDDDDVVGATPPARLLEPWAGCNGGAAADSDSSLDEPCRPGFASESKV

`CC(C)NCC(O)COc1ccc(NC(=O)c2cccs2)cc1` (stereo not drawn) gave an ID50 [1] of 0.045 mg/kg, an Activity (Rattus norvegicus [2]) of 0.114 and a treated urinary output (Rattus norvegicus [3]) of 12.8 mL. The ID50 [4] was greater than 1 mg/kg.
In the case of `CC(C)NCC(O)COc1cccc2ccccc12` (stereo not drawn) [PROPRANOLOL], the Activity (Rattus norvegicus [5]) is reported as 0.216, the Activity (Rattus norvegicus [6]) is reported as 0.216 and the Activity (Rattus norvegicus [7]) is reported as 9.05 mL. For the same compound, the Activity (Rattus norvegicus [8]) was 0.216, the Activity (Rattus norvegicus [9]) was 9.05 mL and the Activity (Rattus norvegicus [10]) was 0.216.
Work on `CC(C)NCC(O)COc1ccc(NC(=O)c2cccs2)cc1C(=O)OC(C)C` (stereo not drawn) yielded an Activity (Rattus norvegicus [11]) of 0.112, an ID50 [1] of 0.17 mg/kg and an ID50 [4] of 0.25 mg/kg. It also gave an Activity (Rattus norvegicus [12]) of 7.25 mL.
Work on `Cc1cc(NC(=O)c2cccs2)ccc1OCC(O)CNC(C)C` (stereo not drawn) yielded an ID50 [1] of 0.02 mg/kg, an Activity (Rattus norvegicus [13]) of 0.14 and an ID50 [4] greater than 1 mg/kg. For the same compound, the Activity (Rattus norvegicus [14]) was 10.33 mL.
Work on `CC(C)(C)NCC(O)COc1ccc(NC(=O)c2cccs2)cc1` (stereo not drawn) yielded an Activity (Rattus norvegicus [15]) of 7.67 mL, an Activity (Rattus norvegicus [16]) of 7.67 mL and an Activity (Rattus norvegicus [17]) of 0.181. For the same compound, the ID50 [1] was 0.075 mg/kg, the treated urinary output (Rattus norvegicus [18]) was 10 mL and the Activity (Rattus norvegicus [19]) was 0.181. It also gave an Activity (Rattus norvegicus [20]) of 0.181, an ID50 [4] greater than 1 mg/kg and an Activity (Rattus norvegicus [21]) of 0.181. The Activity (Rattus norvegicus [22]) was 7.67 mL.
`COC(=O)c1cc(NC(=O)c2cccs2)ccc1OCC(O)CNC(C)(C)C` (stereo not drawn) was tested, and the ID50 [1] was 0.042 mg/kg, the Activity (Rattus norvegicus [23]) was 0.306 and the Activity (Rattus norvegicus [24]) was 6.83 mL. For the same compound, the ID50 [4] was greater than 1 mg/kg.
With `NS(=O)(=O)c1cc2c(cc1Cl)NCNS2(=O)=O` [HYDROCHLOROTHIAZIDE] the Activity (Rattus norvegicus [25]) was 0.261, the treated urinary output (Rattus norvegicus [26]) was 11.2 mL and the Activity (Rattus norvegicus [27]) was 0.261. For the same compound, the treated urinary output (Rattus norvegicus [28]) was 9.58 mL, the Activity (Rattus norvegicus [29]) was 0.261 and the Activity (Rattus norvegicus [30]) was 0.261. For the same compound, the Activity (Rattus norvegicus [31]) was 7.17 mL and the Activity (Rattus norvegicus [32]) was 7.17 mL.
In the case of `Cc1cc(NC(=O)c2cccs2)ccc1OCC(O)CNC(C)(C)C` (stereo not drawn), the Activity (Rattus norvegicus [33]) is reported as 10.33 mL, the ID50 [1] is reported as 0.03 mg/kg and the Activity (Rattus norvegicus [34]) is reported as 0.14. For the same compound, the ID50 [4] was greater than 1 mg/kg.
In the case of `CC(C)(C)NCC(O)COc1ccc(NC(=O)c2cccs2)cc1C(=O)O` (stereo not drawn), the treated urinary output (Rattus norvegicus [35]) is reported as 5.32 mL, the ID50 [1] is reported as greater than 8 mg/kg and the ID50 [4] is reported as greater than 8 mg/kg. It also gave an Activity (Rattus norvegicus [36]) of 0.229.
